Paper PMC8949075, “Evaluation of Two Novel Hydantoin Derivatives Using Reconstructed Human Skin Model Episkin^TM: Perspectives for Application as Potential Sunscreen Agents” (Molecules, 2022)

Key:
[1] = Relative lipophilicity by reversed-phase thin-layer chromatography; format: physicochemical; conditions: RP-TLC, RP-18 plates, methanol/phosphate buffer pH 7.4, extrapolated to 0% methanol
Description: The experimental log P was determined by reversed-phase thin-layer chromatography (RP-TLC). TLC was carried out on plates precoated with silica gel RP-18 F254 (Merck, Darmstadt, Germany). The mobile phases used were the mixtures of methanol (commercially available material of reagent grade) and 100 mM potassium–phosphate buffer (pH = 7.4), with the methanol content ranging from 95 to 65% (v/v) in 5% increments. A total of 10 μL of test compound solutions in methanol (1 mg/mL) were spotted on the plates. The plates were developed in chromatographic chambers previously saturated with solvent for 1 h. After development (at room temperature in a normal chamber: 22 × 22 × 7 cm) and the drying of the plates, the spots were observed under a UV lamp (λ = 254 nm). The Rf values were mean values from two independent chromatographic runs. The experimental Rf was converted into the RM value according to the following equation [66]: RM = log (1/Rf − 1). The calculated values were extrapolated for a 0% methanol concentration (RM0) using the equation: RM = RM0 + bC, where C is the concentration (%, v/v) of methanol in the mobile phase and b is the regression term.

[2] = test system: CHO-K1 cells; test: In vitro micronucleus assay; format: cell-based, Chinese hamster; conditions: for DB (dicentric bridges) / MN (micronuclei) / NB (nuclear buds): count in 1000 binucleated cells per slide; for effect on MN, DB, NB and NDI: 1, 5 and 10 µM
Description: The CHO-K1 cells were seeded in 6-well plates at a density of 1 × 10^6 cells/well and incubated overnight at 37 °C, 5% CO2 atmosphere. […] The test compounds and 4MBC were dissolved in DMSO (solvent, final concentration 0.1%) and ethanol (co-solvent, final concentration 1%). After 24 h of treatment, the medium was removed, and the cells were rinsed with PBS. Then, fresh medium containing cytochalasin B (CytB; Sigma Aldrich, Darmstadt, Germany) (4.5 µg/mL) was added and incubation was continued for the next 24 h.
After the incubation period, the cells were washed with fresh medium, detached by trypsinization, and centrifuged. The supernatant was discarded and 5 mL of 1% ice-cold sodium citrate (Chempur, Piekary Śląskie, Poland) was added to the cell pellet, which was then gently resuspended. After 15 s, 5 mL of freshly prepared fixative solution (methanol/acetic acid, 3:1) and 4 drops of formaldehyde were added. The cell suspension was centrifuged (5 min, 1000 rpm), the supernatant was discarded again, and the pellet was fixed in fixative mixture two more times, without formaldehyde. After the third fixation, part of the supernatant was removed, and around 1 mL of the supernatant was retained to resuspend the cells. The suspension was then dripped onto clean, previously frozen, glass slides to dry. After air-drying, the slides were stained with Giemsa dye (1:20 in phosphate buffer) for 5 min [56, 78, 79].
One thousand binucleated cells per slide with intact nuclei of equal size, similar pattern of cytoplasm staining, intact membrane, and distinguishable from adjacent cells, without apoptotic and necrotic cells were analyzed. Only the micronuclei with the same morphology and color of the main nuclei, with 1/16 to 1/3 of the major nucleus diameter, unrefringent and not overlapping or connected to the main nuclei were counted. Moreover, the presence of dicentric bridges (DB) and nuclear buds (NB) in the binucleated cells was analyzed. The nuclear division index (NDI) was calculated using the following formula: [(1 × MOC) + (2 × BC) + (3 × MUC)]/N, where MOC is the number of mononuclear cells, BC is the number of binuclear cells, MUC represents the number of multinuclear cells, and N is the total number of scored cells. The micronucleus incidence was presented as a number of micronuclei per 1000 examined binuclear cells. The experiment was conducted two times with three repetitions for each condition.

[3] = In vitro microsomal biotransformation; format: in vitro ADME, human; conditions: for t1/2 (in vitro half time): HLMs 0.8 mg/mL; for t1/2 (in vitro half time) / microsomal CLint at 20 µM / half-life at 20 µM: 20 µM, 37 °C; for Biotransformation (main metabolite M, ΔM −28): in the absence or presence of NADPH; for microsomal CLint at 20 µM / half-life at 20 µM: human, liver microsomes, pH 7.4, HLMs 0.8 mg/mL; for microsomal CLint at 20 µM: read-out: Clint (intrinsic clearance); for half-life at 20 µM: read-out: t1/2 (in vitro half time)
Description: The microsome incubation procedure was adapted from the previous studies. Reaction mixtures comprising the test compound JH3 or JH10 (20 µM in methanol), human liver microsomes (HLMs; Sigma Aldrich, Darmstadt, Germany) (0.8 mg/mL), and 100 mM potassium phosphate buffer (pH 7.4) were preincubated before the addition of NADPH-regenerating system (NADP, glucose-6-phosphate and glucose-6-phosphate dehydrogenase in potassium phosphate buffer). The NADPH-regenerating system and buffer components were obtained from Sigma-Aldrich (Darmstadt, Germany). Incubation was conducted for different time points (i.e., 5, 15, and 30 min) with temperature set at 37 °C. The reaction was quenched with ice-cold methanol, followed by the addition of internal standard (IS)–PTX (20 µM). The mixture was then centrifuged.
(§1) Supernatant analysis was performed using UHPLC/MS (Waters Corporation, Milford, MA, USA). Two control samples were prepared with each incubation set. The first, a mixture of a test compound and potassium phosphate buffer, and without the addition of HLMs nor the NADPH-regenerating system, was used to exclude the possibility of hydrolysis facilitated by the buffer solution. The second, a mixture of a test compound, potassium phosphate buffer and HLMs, but without the NADPH-regenerating system solution, was designed to evaluate the production of metabolites in the presence of enzymes but the absence of NADPH [14, 82]. The assays were repeated two times. The in vitro half time (t1/2) for JH3 was established from the slope of the linear regression of ln percent parent compound remaining against incubation time. Intrinsic clearance (Clint) was obtained from the equation: Clint = (volume of incubation [µL] (i.e., 250 µL)/protein in the incubation [mg] (i.e., 0.2 mg)) × 0.693/t1/2 [83, 84, 85].

[4] = Incubation in buffer (pH 7.4) without HLMs (spontaneous hydrolysis control); format: physicochemical; conditions: buffer pH = 7.4, no HLMs, 30 min, 37 °C
Description: as §1

[5] = set-up: method as in PMID 31238526; conditions: 2% (w/w) macrogol formulations; cited from earlier work
[6] = set-up: method as in PMID 31238526; conditions: cited from earlier work
[7] = in vitro; conditions: human, 26 mg/cm^2
Description: The Episkin^TM model (aged 13 days, large/1.07 cm^2 surface area) was provided by Episkin (Lyon, France). The Episkin^TM kit consists of 12 reconstructed epidermis units made of type I collagen matrix, representing the dermis, surfaced with a film of type IV collagen, upon which is laid a stratified and differentiated epidermis derived from human keratinocytes [17]. Upon receipt of the tissues, the culture inserts were removed from the agarose-nutrient solution and transferred into 12-well plates containing 2 mL of the maintenance medium (MM) per well. The MM was provided by the manufacturer. Tissues were then incubated for 24 h at 37 °C in a humidified atmosphere of 5% CO2 before use in the permeation, irritation, or phototoxicity experiments.
Prior to the irritation experiments, the Episkin^TM inserts were washed with sterile PBS to remove traces of the MM and transferred into new 12-well plates containing 2 mL of fresh MM. […] Sodium dodecyl sulphate (SDS; Sigma-Aldrich, Darmstadt, Germany) (5% in water) and PBS were used as positive and negative controls, respectively. Both controls were applied topically (26 mg/cm^2). Samples were tested in two independent experiments using three tissues for each chemical, positive, or negative control.
Then, the tissues were placed in new 12-well plates containing 2 mL of the MM per well and incubated for an additional 42 h at 37 °C in a humidified atmosphere of 5% CO2 as post-treatment incubation time. At the end of this period, the culture media of each tissue were collected and stored at −20 °C for Il-1α measurement.
The cell viability was assessed by a subsequent incubation of the tissues for 3 h with freshly prepared 3-(4,5-dimethylthiazol-2-yl)-2,5-diphenyltetrazolium bromide (MTT; Sigma-Aldrich, Darmstadt, Germany) solution (0.3 mg/mL in assay medium (AM)) in a 12-well plate. Then, a biopsy of the epidermis was done using a puncher (Episkin, Lyon, France), and the precipitated formazan was extracted using 500 µL of acidified isopropanol (Chempur, Piekary Śląskie, Poland) (0.04 N HCl in isopropanol) for 48 h (4 °C). At the end of the extraction period, 200 µL of each sample were transferred to 96-well plates for absorbance measurements at 570 nm (A570) [70, 71, 72, 73]. […] Viability (percent of control) was determined by dividing A570 of experimental wells by A570 of control wells × 100%. The test substance was considered as an irritant when mean tissue viability was equal or less than 50% [16, 17].
Il-1α measurement was conducted by a classic enzyme-linked immunosorbent assay (ELISA) technique (Cayman Chemical, Ann Arbor, MI, USA). Firstly, 100 µL of the samples were added into a 96-well ready to use microtiter plate (precoated with a monoclonal antibody specific for Il-1α (Il-1α capture antibody). Secondly, 100 µL of an acetylcholinesterase:Fab’ Conjugate (AChE:Fab’) was added to each well. The plate was covered with plastic film and incubated overnight at 4 °C. At the end of the incubation period the contents of each well were removed and rinsed five times with wash buffer. Next, 200 µL of Ellman’s reagent (containing the substrate for AChE) was added to each well, the plate was covered with plastic film and developed in the dark using an orbital shaker. The absorbance of the wells was measured at 410 nm. Il-1α concentrations were then calculated using the standard curve.

**Q.** With `CCOC(=O)CN1C(=O)/C(=C/C=C/c2ccc(OC)cc2)N(CC(=O)OCC)C1=O` [JH3, diethyl 2,2′-((Z)-4-((E)-3-(4-methoxyphenyl)allylidene)-2,5-dioxoimidazolidine-1,3-diyl)diacetate] as the molecule, how does the “relative lipophilicity value (RM0)” value [1] read?
**A.** The value was 3.22.

**Q.** What about the “NDI (nuclear division index)” value ([2]; 1 µM) of the same molecule?
**A.** The value was 1.45.

**Q.** And the “DB (dicentric bridges)” value ([2]; 1 µM)?
**A.** The value was 3.8.

**Q.** What about the “MN (micronuclei)” value ([2]; 1 µM) of the same molecule?
**A.** The value was 10.1 ± 3.3.

**Q.** What about the “NB (nuclear buds)” value ([2]; 1 µM) of the same molecule?
**A.** The value was 3.6.

**Q.** And the “NDI (nuclear division index)” value ([2]; 5 µM)?
**A.** The value was 1.40.

**Q.** What about the “DB (dicentric bridges)” value ([2]; 5 µM) of the same molecule?
**A.** The value was 4.1.

**Q.** What about the “MN (micronuclei)” value ([2]; 5 µM) of the same molecule?
**A.** Its value is 10.5 ± 3.9.

**Q.** And the “NB (nuclear buds)” value ([2]; 5 µM)?
**A.** Its value is 3.5.

**Q.** What about the “NDI (nuclear division index)” value ([2]; 10 µM) of the same molecule?
**A.** The value was 1.32.

**Q.** What about the “DB (dicentric bridges)” value ([2]; 10 µM) of the same molecule?
**A.** Its value is 3.6.

**Q.** And the “MN (micronuclei)” value ([2]; 10 µM)?
**A.** Its value is 12.0 ± 4.2.

**Q.** And the “NB (nuclear buds)” value ([2]; 10 µM)?
**A.** Its value is 5.4.

**Q.** And the “effect on MN, DB, NB and NDI” value [2]?
**A.** The value was “did not significantly alter any of the evaluated parameters”.

**Q.** What about the “t1/2 (in vitro half time)” value [3] of the same molecule?
**A.** The value was 5 - min.

**Q.** And the parent compound remaining ([3]; HLMs, 15 min time point)?
**A.** Its parent compound remaining is “Approximately 5%”.

**Q.** And the “Biotransformation (main metabolite M, ΔM −28)” value ([3]; HLMs)?
**A.** The value was “- Hydrolysis”.

**Q.** What about the microsomal CLint at 20 µM [3] of the same molecule?
**A.** Its microsomal CLint at 20 µM is greater than 172 µL/min/mg.

**Q.** And the half-life at 20 µM [3]?
**A.** Its half-life at 20 µM is roughly 5 min.

**Q.** And the “spontaneous hydrolysis in buffer” value [4]?
**A.** Its value is “no signs of spontaneous hydrolysis”.

**Q.** And the “SPFin vitro (sun protection factor)” value [5]?
**A.** The value was 1.68 ± 0.04.

**Q.** What about the “UVA PF” value [5] of the same molecule?
**A.** Its value is 6.83 ± 0.05.

**Q.** And the “UVA/UVB Ratio” value [5]?
**A.** The value was 4.50 ± 0.32.

**Q.** And the λc [5]?
**A.** Its λc is 391 nm.

**Q.** What about the photostability [6] of the same molecule?
**A.** The photostability was “photostable”.

**Q.** And the viability at 15 min [7]?
**A.** The viability at 15 min was no less than 50%.

**Q.** What does the source list for `CCOC(=O)CN1C(=O)/C(=C/c2ccc(OC)cc2)N(CC(=O)OCC)C1=O` [JH10, diethyl 2,2′-((Z)-4-(4-methoxybenzylidene)-2,5-dioxoimidazolidine-1,3-diyl)diacetate]?
**A.** relative lipophilicity value (RM0) [1]: 2.46; NDI (nuclear division index) ([2]; 1 µM): 1.31; DB (dicentric bridges) ([2]; 1 µM): 3.5; MN (micronuclei) ([2]; 1 µM): 9.0 ± 3.9; NB (nuclear buds) ([2]; 1 µM): 4.3; NDI (nuclear division index) ([2]; 5 µM): 1.38; DB (dicentric bridges) ([2]; 5 µM): 3.8; MN (micronuclei) ([2]; 5 µM): 11.2 ± 3.6; NB (nuclear buds) ([2]; 5 µM): 5.2; NDI (nuclear division index) ([2]; 10 µM): 1.47; DB (dicentric bridges) ([2]; 10 µM): 3.5; MN (micronuclei) ([2]; 10 µM): 9.5 ± 3.7; NB (nuclear buds) ([2]; 10 µM): 3.2; effect on MN, DB, NB and NDI [2]: did not significantly alter any of the evaluated parameters; t1/2 (in vitro half time) [3]: <<5 - min; parent compound detected ([3]; HLMs, 5 min time point): less than 0.5%; Biotransformation (main metabolite M, ΔM −28) ([3]; HLMs): - Hydrolysis; microsomal CLint at 20 µM [3]: > 172 µL/min/mg; half-life at 20 µM [3]: ~5 min; spontaneous hydrolysis in buffer [4]: no signs of spontaneous hydrolysis; SPFin vitro (sun protection factor) [5]: 3.07 ± 0.04; UVA PF [5]: 2.59 ± 0.23; UVA/UVB Ratio [5]: 0.84 ± 0.08; λc [5]: 366 nm; photostability [6]: photostable; viability at 15 min [7]: ≥ 50%
